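These data come from cells grown in 96-well plates and exposed to compound for 48 hours at five concentrations. TGI marks complete inhibition of growth.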

Holding throughout (assay): NCI-60 cell line screen, 48 h
Assay [1] deals with M14 melanoma.
Assay [2] relates to CCRF-CEM leukemia.
For assay [3], the system named is SK-OV-3 ovarian.
For assay [4], the system named is ACHN renal.
The test system of assay [5] is HOP-62 NSCLC.
Assay [6] deals with K-562 leukemia.
The test system of assay [7] is SF-295 CNS.
Assay [8] concerns HL-60(TB) leukemia.
The test system of assay [9] is 786-0 renal.
Assay [10] relates to A498 renal.
Assay [11] concerns HOP-92 NSCLC.
Assay [12] concerns SK-MEL-28 melanoma.
Assay [13] relates to UO-31 renal.
In assay [14] the test system is IGROV1 ovarian.
Assay [15] has as its system MDA-MB-231 breast.
Assay [16] deals with U251 CNS.
Assay [17] deals with EKVX NSCLC.
The subject of assay [18] is NCI-H23 lung.
Assay [19] has as its system HCC-2998 colon.
The subject of assay [20] is MDA-N.

Consider `Cc1ccc(-n2cnc3c(N/N=C4\SCC(=O)N4c4ccccc4)ncnc32)cc1`, for which the TGI is 13.4 µM in assay [1]; 4.93 µM in assay [2]; 27.7 µM in assay [3]; 18.6 µM in assay [4]; 28.9 µM in [5]; more than 100 µM in assay [6]. Besides, the TGI in assay [7] was 27.6 µM; in assay [8], 4.29 µM; in assay [9], 12.1 µM; in assay [10], 27.2 µM; in assay [11] it was 11.3 µM; in assay [12], 11.4 µM. Moreover, the TGI in [13] was found to be 17.9 µM; in [14], 15 µM; in assay [15] it was 10.5 µM; in assay [16], 16.2 µM; in assay [17], 29 µM; in [18], 14 µM.
On to `CN1CN(c2ccccc2)C2(CCN(CCCC(=O)c3cccs3)CC2)C1=O`, for which the TGI in [1] is more than 100 µM; in assay [2], more than 100 µM; in assay [3], more than 100 µM; in assay [4] it was more than 100 µM; in assay [5] it was 37.4 µM; in assay [6] it was more than 100 µM. Further, the TGI in [7] is 85.6 µM; in assay [8] it was more than 100 µM; in [19], 38.9 µM; in assay [9] it was more than 100 µM; in assay [12] it was more than 100 µM; in assay [13] it was more than 100 µM. For the same molecule, the TGI in assay [14] was more than 100 µM; in [15], more than 100 µM; in [16] it was more than 100 µM; in assay [17] it was 80.9 µM; in assay [18], more than 100 µM; in [20], more than 100 µM.
For the molecule `CN(/N=C/c1cccs1)c1ccc([N+](=O)[O-])cc1[N+](=O)[O-]`, the TGI in [1], in [2], in assay [3], in assay [4], in assay [5] and in assay [6] was more than 100 µM in each case. Besides, the TGI in assay [7], in assay [8], in [19], in assay [9], in assay [12] and in assay [13] was more than 100 µM in each case. The TGI in assay [14], in assay [15], in [16], in [17], in [18] and in assay [20] was more than 100 µM each time.
As to `CCOC(=O)C(NC(=O)NC(C(=O)OCC)C(=O)OCC)C(=O)OCC`, the TGI in assay [1], in [3], in assay [4], in assay [5], in assay [6] and in [7] was more than 100 µM in each case. The TGI in [19], in assay [9], in assay [11], in [12], in [13] and in assay [14] was more than 100 µM each time. For the same molecule, the TGI in assay [16], in assay [17], in assay [18] and in assay [20] was more than 100 µM each time.
Regarding `O=C(CC(C(=O)c1cccs1)c1ccsc1)c1ccsc1` (centres undefined), the TGI in assay [1] is 50.8 µM; in [2] it was more than 100 µM; in [3] it was more than 100 µM; in [4] it was more than 100 µM; in assay [5] it was more than 100 µM; in [6], more than 100 µM. Further, the TGI in [7] is 93.3 µM; in [8], more than 100 µM; in assay [19] it was more than 100 µM; in assay [9], more than 100 µM; in assay [10], 57.9 µM; in [11], more than 100 µM. For the same molecule, the TGI in assay [12], in assay [13], in [14], in assay [15], in [16] and in assay [17] was more than 100 µM in each case. In addition, in [18], the TGI was more than 100 µM.
`CCOC(=O)C1(Cc2c[nH]c3ccccc23)C(O)CCCN1C(C)=O` (centres undefined): the TGI in assay [1], in assay [2], in [3], in assay [4], in assay [5] and in [6] was more than 100 µM each time. Further, the TGI in [7], in assay [8], in [19], in assay [9], in assay [10] and in [11] was more than 100 µM each time. The TGI in [12], in assay [13], in assay [14], in assay [15], in [16] and in [17] was more than 100 µM throughout. The molecule further showed a TGI in assay [18] of more than 100 µM.
With `CSCC[C@H]1C(=O)N=C(N)N1C(=O)OCc1ccccc1`, the TGI in assay [4] is more than 100 µM; in assay [5], more than 100 µM; in assay [6] it was 71.9 µM; in assay [7], more than 100 µM; in [8], 44.8 µM; in [19], more than 100 µM. The TGI in [9] was more than 100 µM; in assay [10], more than 100 µM; in assay [12] it was 96.8 µM; in assay [13], more than 100 µM; in [14], more than 100 µM; in assay [15], more than 100 µM. Further, the TGI in [16] was more than 100 µM; in [17], more than 100 µM; in assay [18], 55.4 µM; in assay [20] it was more than 100 µM.
As to `Cc1cccc(Nc2cn(CCOc3ccccc3)c(=O)n(CCOc3ccccc3)c2=O)c1`, the TGI in [1], in assay [2], in [4], in assay [5], in assay [6] and in [7] was more than 100 µM throughout. The TGI in [19], in assay [9], in [10], in [11], in assay [12] and in assay [13] was more than 100 µM throughout. The TGI is more than 100 µM in assay [14]; more than 100 µM in [16]; 96.9 µM in assay [17]; more than 100 µM in assay [18]; more than 100 µM in [20].
Consider `O=C(NCCNCCO)N/N=C/c1ccc([N+](=O)[O-])cc1`, for which the TGI in assay [1], in [2], in [3], in [4], in [5] and in assay [6] was more than 100 µM each time. Besides, the TGI in [7], in [8], in [19], in [9], in assay [10] and in assay [12] was more than 100 µM each time. For the same molecule, the TGI in [13], in assay [14], in assay [15], in assay [16], in assay [18] and in assay [20] was more than 100 µM each time.
As to `CCOC(CCCN1CCC2(CC1)C(=O)N(C)CN2c1ccccc1)(OCC)c1ccc(F)cc1`, the TGI was determined as 23.9 µM in [1]; 18.7 µM in assay [2]; 46.8 µM in [3]; 28.6 µM in [4]; 14.7 µM in assay [5]; 33 µM in assay [6]. The TGI in [7] stood at 25.3 µM; in assay [8] it was 30.6 µM; in [19], 21.3 µM; in [9] it was 27.7 µM; in assay [12], 30.5 µM; in [13], 19.8 µM. The TGI in [14] came to 31.2 µM; in [15], 29.3 µM; in assay [16], 26.3 µM; in assay [17] it was 9.81 µM; in assay [18], 39.5 µM; in [20] it was 24.5 µM.
Regarding `CN=C(N)N/N=C(\C)c1ccc2oc3ccc(/C(C)=N/NC(N)=NC)cc3c2c1`, the TGI is more than 100 µM in [1]; 9.06 µM in assay [2]; 74 µM in assay [3]; more than 48.8 µM in assay [4]; 15 µM in [6]; more than 100 µM in [7]. The TGI in assay [8] was 10.7 µM; in [19], 4.97 µM; in assay [9] it was more than 100 µM; in assay [10], more than 31.3 µM; in assay [12] it was more than 100 µM; in assay [13], more than 100 µM. For the same molecule, the TGI in [17] is more than 100 µM; in [20], more than 30.6 µM.
On to `CC(C)N1CSC(=S)N(Cc2ccccc2)C1`, for which the TGI in assay [2], in assay [3], in assay [4], in assay [5], in [6] and in [7] was more than 10 µM in each case. Further, the TGI in assay [8] is 0.652 µM; in [19] it was more than 10 µM; in assay [10] it was more than 10 µM; in [11], 8.39 µM; in assay [12] it was more than 10 µM; in [14] it was more than 10 µM. Moreover, the TGI in assay [16] was more than 10 µM; in [17] it was more than 10 µM; in assay [18], more than 10 µM; in assay [20] it was 7.44 µM.
In the case of `NC1CNC(=O)c2cscc21` (centres undefined), the TGI in assay [1], in [2], in assay [4], in assay [6], in assay [7] and in assay [8] was more than 100 µM throughout. In addition, the TGI in [19], in [9], in [10], in assay [11], in assay [12] and in assay [13] was more than 100 µM each time. Moreover, the TGI in assay [14], in assay [16], in [17], in [18] and in assay [20] was more than 100 µM throughout.
On to `CCOC(=O)C(O)(NC(=O)Nc1ccc(F)cc1)C(F)(F)F` (centres undefined), for which the TGI in assay [1], in assay [2], in [3], in [4], in [6] and in assay [8] was more than 100 µM each time. Besides, the TGI in [19], in assay [9], in assay [10], in assay [12], in assay [13] and in [14] was more than 100 µM throughout. The TGI in [16], in [17], in assay [18] and in assay [20] was more than 100 µM each time.
Take `O=[N+]([O-])c1nccn1CC1OC(n2ccnc2[N+](=O)[O-])C(O)C(O)C1O` (centres undefined): the TGI in assay [1], in [2], in assay [4], in assay [5], in [6] and in [8] was more than 100 µM in each case. The TGI in assay [19], in assay [9], in assay [10], in assay [11], in assay [12] and in assay [13] was more than 100 µM each time. In addition, the TGI in assay [16], in [17], in assay [18] and in assay [20] was more than 100 µM in each case.
As for `CC(C)CNC(=O)Cn1c2c(c3ccccc31)CCCC2`, the TGI in [1], in [2], in assay [3], in assay [4], in assay [5] and in [6] was more than 100 µM each time. In addition, the TGI in assay [7] was more than 100 µM; in assay [8] it was more than 100 µM; in [19] it was more than 100 µM; in [9], 61.2 µM; in assay [10], 85 µM; in assay [11], more than 100 µM. Besides, the TGI in assay [12], in assay [13], in assay [14], in assay [17], in assay [18] and in assay [20] was more than 100 µM each time.

The values above are taken from PubChem BioAssay (NCI).
